The source of these data is PubChem BioAssay (NCI).

The structures appear in SMILES notation.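 Following 48 hours of exposure in 96-well plates, responses at five concentrations were used to interpolate endpoints linearly. Definition used: TGI = concentration required for complete inhibition of growth.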 A value given as a limit tells only on which side of the number the result lay.

Holding throughout (assay): NCI-60 cell line screen, 48 h
Test [1] deals with CCRF-CEM leukemia.
Test [2] concerns HCT-116 colon.
The subject of test [3] is HS 578T breast.
The test system of test [4] is HT29 colon.
Test [5] deals with IGROV1 ovarian.
Test [6] deals with KM12 colon.
The subject of test [7] is M14 melanoma.
The test system of test [8] is MALME-3M melanoma.
The test system of test [9] is MDA-N.
Test [10] deals with NCI-H226 lung.
The subject of test [11] is PC-3 prostate.
Test [12] relates to U251 CNS.
In test [13] the test system is UACC-257 melanoma.

Regarding `COc1ccccc1Cn1c2c(c3cc(O)ccc31)C(=O)c1ccccc1C2=O`, the TGI in test [1], in [2], in test [3], in [4], in test [5] and in test [6] was more than 100 µM each time. Besides, the TGI was more than 100 µM in test [7]; more than 100 µM in test [8]; more than 100 µM in [9]; 79 µM in test [10]; 53.5 µM in [11]; 64.9 µM in test [12]. Moreover, the TGI in test [13] was more than 100 µM.
`CC(=O)Nc1ccc2c(c1)nc1c3ccccc3ccn21`: the TGI in test [1], in [2], in [3], in [4], in [5] and in test [6] was more than 100 µM each time. Also, the TGI in test [7], in [8], in [9], in test [10], in [11] and in test [12] was more than 100 µM throughout. Also, the TGI in test [13] is more than 100 µM.
On to `OC(CCN1CCN(CCOC(c2ccc(F)cc2)c2ccc(F)cc2)CC1)c1ccc(Br)cc1` (centres undefined), for which the TGI turned out to be 11.7 µM in test [1]; 7.84 µM in test [2]; 23.4 µM in test [3]; 12.7 µM in test [4]; 16.1 µM in [5]; 8.07 µM in [6]. The TGI in [7] turned out to be 3.86 µM; in test [8] it was 4.39 µM; in test [9], 6.93 µM; in test [10] it was 21.9 µM; in test [11] it was 17.8 µM; in test [12] it was 16.4 µM. In addition, the TGI in test [13] was 4.61 µM.
For `O=C1CCC(CCc2nc3ccccc3[nH]2)(c2ccccc2)C(=O)N1` (centres undefined), the TGI in test [1], in test [2], in [3], in test [4], in test [5] and in test [6] was more than 100 µM in each case. Further, the TGI in test [7], in test [8], in test [9], in [10], in [11] and in [12] was more than 100 µM throughout. The TGI in test [13] was more than 100 µM.
For the compound `CC1OC2OC3C(OCC(O)C3O)OC(=O)[C@]34CCC(C)(C)CC3C3=CCC5[C@@]6(C)C[C@H](O)[C@H](OC7OC(CO)C(O)C(O)C7OC7OC(COC(=O)CC(C)(O)CC(=O)OC1C(OC1OC(CO)C(O)C(O)C1O)C2O)C(O)C(O)C7O)[C@@](C)(CO)C6CC[C@@]5(C)[C@]3(C)CC4` (some centres undefined), the TGI amounted to 14 µM in [1]; 10.3 µM in [2]; 18.6 µM in [3]; 3.35 µM in [4]; 11.8 µM in [5]; 8.24 µM in test [6]. Moreover, the TGI in test [7] was determined as 8.44 µM; in [8], 6.96 µM; in test [9], 2.65 µM; in [10] it was 22.7 µM; in test [11] it was 6.85 µM; in [12], 9.26 µM. The TGI in [13] was found to be 4.24 µM.
As for `CCC(C)C(NC(=O)C(CCCC[N+](=N)N)NC(=O)C(CCCC[N+](=N)N)NC(=O)c1ccc(OC)cc1)C(=O)NC(CCCC[N+](=N)N)C(=O)N1CCCC1C(=O)NC(CCCCN)C(=O)NC(CC(C)C)C(N)=O` (centres undefined), the TGI in test [1], in test [2], in test [3], in [4], in [6] and in [7] was more than 100 µM in each case. In addition, the TGI in [8], in test [9], in test [10], in test [11], in test [12] and in [13] was more than 100 µM each time.
Take `O=c1cccc2n1CC1CNCC2C1` (centres undefined): the TGI in test [1], in test [2], in test [3], in test [4], in test [6] and in test [7] was more than 100 µM in each case. The TGI in test [8], in test [9], in test [10], in test [11], in [12] and in test [13] was more than 100 µM throughout.
As to `Cc1ccc(S(=O)(=O)N2CCc3cc(O)c([N+](=O)[O-])cc32)cc1`, the TGI in test [1], in test [2], in [3], in [5], in test [6] and in test [7] was more than 100 µM in each case. For the same compound, the TGI in test [8], in test [9], in [10], in test [11], in test [12] and in test [13] was more than 100 µM throughout.
As for `C=CCN(c1cc(OC)c2[nH]c(C(=O)O)c(C)c2c1[N+](=O)[O-])S(C)(=O)=O`, the TGI in test [1], in test [2], in test [3], in test [5], in [6] and in test [7] was more than 100 µM in each case. Moreover, the TGI in [8] is 52.3 µM; in test [9], more than 100 µM; in [10], more than 100 µM; in test [11], more than 100 µM; in [12], more than 100 µM; in [13], more than 100 µM.
As for `CN(C)CCN1C(=O)N(CCN(C)C)c2c3cc(O)ccc3nc3c([N+](=O)[O-])ccc1c23`, the TGI in test [1] turned out to be 20 µM; in test [2], 17.1 µM; in test [3], 45.8 µM; in test [4] it was 20.1 µM; in test [5], 13.6 µM; in [6] it was 23.3 µM. For the same compound, the TGI in test [8] came to 29.6 µM; in test [9], 26.7 µM; in test [10], 30.5 µM; in test [11] it was 75 µM; in test [12] it was 24.4 µM; in [13] it was 29.2 µM.
For the compound `COc1ccc2c(c1)-c1nc(=S)n(CCN(C)C)c3ccc([N+](=O)[O-])c(c13)N2`, the TGI in [2] came to 1.56 µM; in test [3] it was 7.69 µM; in test [4], 2.25 µM; in [5], 2.55 µM; in [6], 6.27 µM; in test [7] it was 7.43 µM. For the same compound, the TGI in test [8] was found to be 2.49 µM; in [9], 2.19 µM; in test [10], 24.1 µM; in test [11] it was 4.36 µM; in test [12], 2.44 µM; in [13], 5.92 µM.
Take `COc1cc2c3cc1Oc1cc(ccc1O)C[C@@H]1c4c(cc(OC)c(O)c4Oc4ccc(cc4)C[C@@H]3[N+](C)(C)CC2)CC[N+]1(C)C`: the TGI in test [2] is more than 100 µM; in test [3] it was 85.1 µM; in test [4], more than 100 µM; in [5], more than 100 µM; in [6], more than 100 µM; in [7], 30.4 µM. Besides, the TGI is 74.4 µM in [8]; more than 100 µM in test [9]; more than 100 µM in [10]; more than 100 µM in test [11]; more than 100 µM in test [12]; more than 100 µM in test [13].
Take `CC(=O)Oc1ccc2c(c1)O/C(=C\c1ccc(O)cc1)C2=O`: the TGI in [1], in [2], in test [3], in test [5], in [6] and in [7] was more than 100 µM in each case. Besides, the TGI in [9], in test [10], in test [11], in test [12] and in test [13] was more than 100 µM each time.
As to `CC1=NN(c2cccc(Cl)c2)C2(C1=Cc1ccc(N(C)C)cc1)C(Cl)C(=O)N2c1nc2ccccc2s1` (centres undefined), the TGI was more than 100 µM in test [1]; more than 100 µM in [2]; more than 100 µM in test [3]; more than 100 µM in [4]; more than 100 µM in test [5]; 38.5 µM in test [6]. Moreover, the TGI in test [7], in [9], in [10], in test [11], in [12] and in test [13] was more than 100 µM throughout.
Consider `COc1ccc(C(=O)/C=C/c2ccc(OCCCCCCCCCCOc3ccc(/C=C/C(=O)c4ccc(OC)c(OC)c4)cc3)cc2)c(OC)c1`, for which the TGI in [1], in test [2], in test [3], in [4], in test [5] and in test [6] was more than 100 µM throughout. In addition, the TGI in test [7], in test [9], in test [10], in [11], in [12] and in test [13] was more than 100 µM throughout.
Regarding `COC(=O)Cc1c2n(c3ccccc13)C(=O)N1c3ccccc3C(CC(=O)OC)C21` (centres undefined), the TGI in [1] is more than 100 µM; in [2], more than 100 µM; in [3], more than 100 µM; in [4], more than 100 µM; in [5], 71.6 µM; in [8], more than 100 µM. The TGI in test [9], in test [10], in test [11], in test [12] and in test [13] was more than 100 µM in each case.
Turning to `CC1=[N+]([O-])C2(CCCC2)N(O)C1(C)C`, the TGI in test [2], in test [3], in test [4], in [5], in [6] and in [7] was more than 100 µM throughout. Also, the TGI in [8], in [9], in test [10], in test [11], in [12] and in [13] was more than 100 µM each time.
Regarding `CO[C@H](C)[C@](O)(C(=O)OCC1=CCN2CC[C@@H](O)[C@H]12)C(C)C`, the TGI in [1], in test [2], in test [3], in test [4], in [5] and in [6] was more than 100 µM each time. Besides, the TGI in test [7], in [9], in test [10], in test [11], in [12] and in test [13] was more than 100 µM each time.
Consider `O=c1n(CCCN2CCOCC2)nc2n1-c1ccc3ccccc3c1SC2`, for which the TGI in test [1] is more than 100 µM; in test [2], more than 100 µM; in test [3], more than 100 µM; in [4], 41.2 µM; in test [5] it was more than 100 µM; in test [6], more than 100 µM. Besides, the TGI in test [9] was 24.1 µM; in [10], more than 100 µM; in test [11], more than 100 µM; in [12], more than 100 µM; in test [13], more than 100 µM.
For the compound `CC(C)NC(=O)OCc1c(COC(=O)NC(C)C)n(C)c2c1ccc1cc(Cl)c(Cl)cc12`, the TGI in test [1] was more than 100 µM; in test [2], 24 µM; in [3] it was 68.9 µM; in test [4] it was 29.3 µM; in [5] it was 22.2 µM; in test [7], 29.2 µM. In addition, the TGI was found to be 22.7 µM in test [8]; 26.5 µM in [9]; 17.3 µM in [10]; 29 µM in [11]; 29.3 µM in test [12]; 30.6 µM in test [13].
For the compound `CC(=O)OC1COC(N2c3ccccc3[C@@H]3CCc4c([nH]c5ccccc45)[C@@H]32)C(OC(C)=O)C1OC(C)=O` (mixture of isomers), the TGI in test [1] was more than 100 µM; in test [2] it was more than 100 µM; in [3] it was more than 100 µM; in test [4], more than 100 µM; in test [5], 54 µM; in [6], more than 100 µM. Also, the TGI in test [7], in test [8], in test [9], in test [11], in test [12] and in test [13] was more than 100 µM in each case.
